In patent publication US20250368649A1, “TETRAHYDROPYRIDOPYRIMIDINE PAN-KRAS INHIBITORS” (Mirati Therapeutics, Inc., priority 2022, published 2025):

Legend:
[1] = target: KRas G12V (Homo sapiens, UniProt P01116, G12V); test: biochemical; settings: Binding to KRas (IC50 nM) G12V, TR-FRET displacement, KRas G12V
[2] = target: KRas G12S (Homo sapiens, UniProt P01116, G12S); type: binding; settings: TR-FRET displacement, read-out: Binding to KRas (IC50 nM) G12S
[3] = target: KRas G12C (Homo sapiens, UniProt P01116, G12C); type: binding; settings: TR-FRET displacement, read-out: Binding to KRas (IC50 nM) G12C
KRas G12C, sequence (P01116 1-169 isoform P01116-2 G12C): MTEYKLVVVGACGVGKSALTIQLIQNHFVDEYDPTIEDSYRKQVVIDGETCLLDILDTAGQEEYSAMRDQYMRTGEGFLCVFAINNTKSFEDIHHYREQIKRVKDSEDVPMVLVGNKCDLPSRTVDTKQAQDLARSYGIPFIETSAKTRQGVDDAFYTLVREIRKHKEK

[4] = test system: A549 cells; test: Inhibition of KRas-mediated phosphorylation of ERK (Cisbio HTRF pERK), A549 cells; type: cell-based; settings: Homo sapiens; for IC50: A549, 3 h, 3 hr compound incubation
[5] = target: KRas G12D (Homo sapiens, UniProt P01116, G12D); test: biochemical; settings: Binding to KRas (IC50 nM) G12D, TR-FRET displacement, KRas G12D
KRas G12D, sequence (P01116 1-169 isoform P01116-2 G12D): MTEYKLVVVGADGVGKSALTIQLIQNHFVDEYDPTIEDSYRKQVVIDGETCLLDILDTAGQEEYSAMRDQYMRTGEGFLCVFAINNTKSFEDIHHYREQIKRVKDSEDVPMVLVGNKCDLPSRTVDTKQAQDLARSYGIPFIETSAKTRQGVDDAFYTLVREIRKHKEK

[6] = test system: HCT116 cells; test: Inhibition of KRas-mediated phosphorylation of ERK (Cisbio HTRF pERK), HCT116 cells; type: cell-based; settings: Homo sapiens; for IC50: HCT-116, 3 h, 3 hr compound incubation
[7] = test system: ASPC1 cells; test: Inhibition of KRas-mediated phosphorylation of ERK (Cisbio HTRF pERK), ASPC1 cells; type: cell-based; settings: Homo sapiens, AsPC-1 cells; for IC50: ASPC1, 3 h, 3 hr compound incubation
[8] = test system: H727 cells; test: Inhibition of KRas-mediated phosphorylation of ERK (Cisbio HTRF pERK), H727 cells; type: cell-based; settings: Homo sapiens; for IC50: NCI-H727, 3 h, 3 hr compound incubation
[9] = test system: H460 cells; test: Inhibition of KRas-mediated phosphorylation of ERK (Cisbio HTRF pERK), H460 cells; type: cell-based; settings: Homo sapiens; for IC50: NCI-H460, 3 h, 3 hr compound incubation
[10] = test system: H358 cells; test: Inhibition of KRas-mediated phosphorylation of ERK (Cisbio HTRF pERK), H358 cells; type: cell-based; settings: Homo sapiens; for IC50: NCI-H358, 3 h, 3 hr compound incubation
[11] = target: KRas WT (Homo sapiens, UniProt P01116); test: KRas binding assay (TR-FRET displacement), KRas WT; settings: TR-FRET displacement
KRas WT, sequence (P01116 1-169 isoform P01116-2): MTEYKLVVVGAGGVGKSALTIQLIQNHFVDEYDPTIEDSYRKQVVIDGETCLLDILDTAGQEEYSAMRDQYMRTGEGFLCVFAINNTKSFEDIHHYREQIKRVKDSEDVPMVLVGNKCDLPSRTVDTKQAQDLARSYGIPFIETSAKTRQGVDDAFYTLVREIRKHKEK

[12] = target: KRas G12R (Homo sapiens, UniProt P01116, G12R); test: biochemical; settings: Binding to KRas (IC50 nM) G12R, TR-FRET displacement, KRas G12R
KRas G12R, sequence (P01116 1-169 isoform P01116-2 G12R): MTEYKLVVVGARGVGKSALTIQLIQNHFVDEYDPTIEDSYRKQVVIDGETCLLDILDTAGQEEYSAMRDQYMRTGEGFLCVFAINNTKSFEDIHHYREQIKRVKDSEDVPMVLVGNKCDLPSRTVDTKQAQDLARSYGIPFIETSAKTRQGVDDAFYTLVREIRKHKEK

[13] = target: KRas G13D (Homo sapiens, UniProt P01116, G13D); type: binding; settings: TR-FRET displacement, read-out: Binding to KRas (IC50 nM) G13D
KRas G13D, sequence (P01116 1-169 isoform P01116-2 G13D): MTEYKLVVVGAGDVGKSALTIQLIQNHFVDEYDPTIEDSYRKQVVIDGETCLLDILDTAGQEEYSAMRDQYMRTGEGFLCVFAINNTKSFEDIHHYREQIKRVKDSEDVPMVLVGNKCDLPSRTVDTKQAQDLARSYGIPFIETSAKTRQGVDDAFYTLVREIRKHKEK

[14] = target: KRas G12A (Homo sapiens, UniProt P01116, G12A); type: binding; settings: TR-FRET displacement, read-out: Binding to KRas (IC50 nM) G12A
KRas G12A, sequence (P01116 1-169 isoform P01116-2 G12A): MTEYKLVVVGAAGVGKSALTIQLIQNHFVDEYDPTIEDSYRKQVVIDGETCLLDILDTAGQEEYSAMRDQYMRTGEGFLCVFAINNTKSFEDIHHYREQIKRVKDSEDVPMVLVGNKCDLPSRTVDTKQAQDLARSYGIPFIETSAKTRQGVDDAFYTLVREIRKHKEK

[15] = target: KRas Q61H (Homo sapiens, UniProt P01116, Q61H); test: KRas binding assay (TR-FRET displacement), KRas Q61H; settings: TR-FRET displacement
KRas Q61H, sequence (P01116 1-169 isoform P01116-2 Q61H): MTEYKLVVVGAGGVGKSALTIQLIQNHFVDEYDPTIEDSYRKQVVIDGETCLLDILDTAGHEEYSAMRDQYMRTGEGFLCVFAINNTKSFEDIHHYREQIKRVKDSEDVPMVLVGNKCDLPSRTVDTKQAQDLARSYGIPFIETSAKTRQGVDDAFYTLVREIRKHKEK

KRas G12S, sequence (P01116 1-169 isoform P01116-2 G12S): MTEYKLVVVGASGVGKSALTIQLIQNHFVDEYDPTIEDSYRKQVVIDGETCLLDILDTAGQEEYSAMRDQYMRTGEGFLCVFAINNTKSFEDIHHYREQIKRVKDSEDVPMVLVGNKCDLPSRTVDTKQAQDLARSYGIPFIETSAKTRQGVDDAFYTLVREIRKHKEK
KRas G12V, sequence (P01116 1-169 isoform P01116-2 G12V): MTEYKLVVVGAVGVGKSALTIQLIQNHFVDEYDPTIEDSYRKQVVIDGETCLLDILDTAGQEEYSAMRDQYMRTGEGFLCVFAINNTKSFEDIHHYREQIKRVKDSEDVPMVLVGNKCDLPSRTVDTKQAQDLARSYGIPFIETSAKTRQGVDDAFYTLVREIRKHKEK

Compound | IC50 [1] [nM] | IC50 [2] [nM] | IC50 [3] [nM] | IC50 [5] [nM] | IC50 [11] [nM] | IC50 [13] [nM] | IC50 [14] [nM] | IC50 [15] [nM] | also measured
C[C@@H]1C[C@@H]1c1c(Cl)cc(O)cc1N1CCc2c(nc(OC[C@@]34CCCN3C[C@H](F)C4)nc2N2CCC[C@@](C)(O)C2)C1 (stereo in doubt) [Example 655, (R)-1-(7-(3-chloro-5-hydroxy-2-(cis-2-methylcyclopropyl)phenyl)-2-(((2R,7aS)-2-fluorotetrahydro-1H-pyrrolizin-7a(5H)-yl)methoxy)-5,6,7,8-tetrahydropyrido[3,4-d]pyrimidin-4-yl)-3-methylpiperidin-3-ol] | 4 | 5 | 4 | 5 | 5 | – | – | – | IC50 [4]: 359 nM; IC50 [6]: 926 nM; IC50 [7]: 247 nM; IC50 [8]: 525 nM; IC50 [9]: 237 nM; IC50 [10]: 189 nM
CCc1c(F)ccc2cc(O)cc(N3CCc4c(nc(OC[C@@]56CCCN5C[C@H](F)C6)nc4N4CCCn5nc(C(=O)N6CC7CC6CN7)cc5C4)C3)c12 (stereo partly drawn) [Example 502, 2,5-diazabicyclo[2.2.1]heptan-2-yl(5-(7-(8-ethyl-7-fluoro-3-hydroxynaphthalen-1-yl)-2-(((2R,7aS)-2-fluorohexahydro-1H-pyrrolizin-7a-yl)methoxy)-5,6,7,8-tetrahydropyrido[3,4-d]pyrimidin-4-yl)-5,6,7,8-tetrahydro-4H-pyrazolo[1,5-a][1,4]diazepin-2-yl)methanone] | < 2 | – | – | < 2 | – | – | – | – | inhibition at 0.1 µM ([4]; single point at 100 nM, 3 hrs compound incubation): 11%; inhibition at 0.1 µM ([6]; HCT-116, single point at 100 nM, 3 hrs compound incubation): 8%; IC50 ([7]; Cisbio pERK HTRF): 124 nM; inhibition at 0.1 µM ([7]; ASPC1, single point at 100 nM, 3 hrs compound incubation): 22%; IC50 ([8]; Cisbio pERK HTRF): 1310 nM; inhibition at 0.1 µM ([8]; NCI-H727, single point at 100 nM, 3 hrs compound incubation): 7%; inhibition at 0.1 µM ([9]; NCI-H460, single point at 100 nM, 3 hrs compound incubation): 7%; inhibition at 0.1 µM ([10]; NCI-H358, single point at 100 nM, 3 hrs compound incubation): 5%; IC50 [12]: 3 nM
CCc1cccc2cccc(N3CCc4c(nc(OCC5(CN(C)C)CC5)nc4N4CCCC(c5nnc[nH]5)C4)C3)c12 (stereo not shown) [Example 514, 1-(1-(((4-(3-(4H-1,2,4-triazol-3-yl)piperidin-1-yl)-7-(8-ethylnaphthalen-1-yl)-5,6,7,8-tetrahydropyrido[3,4-d]pyrimidin-2-yl)oxy)methyl)cyclopropyl)-N,N-dimethylmethanamine] | 1570 | 318 | 286 | 3220 | 252 | 372 | 296 | 389 | –
CCc1cccc2cccc(N3CCc4c(nc(OCC5(CN(C)C)CC5)nc4N4CCCOC(CCO)C4)C3)c12 (stereo not shown) [Example 515, 2-(4-(2-((1-((dimethylamino)methyl)cyclopropyl)methoxy)-7-(8-ethylnaphthalen-1-yl)-5,6,7,8-tetrahydropyrido[3,4-d]pyrimidin-4-yl)-1,4-oxazepan-2-yl)ethan-1-ol] | 346 | 725 | 373 | 298 | 622 | 988 | 656 | 877 | –
CCc1cccc2cccc(N3CCc4c(nc(OCC5(CN(C)C)CC5)nc4N4CC(C)CC(CO)C4)C3)c12 (stereo not shown) [Example 516, (1-(2-((1-((dimethylamino)methyl)cyclopropyl)methoxy)-7-(8-ethylnaphthalen-1-yl)-5,6,7,8-tetrahydropyrido[3,4-d]pyrimidin-4-yl)-5-methylpiperidin-3-yl)methanol] | 1150 | 1560 | 1030 | 1230 | 2650 | 3180 | 1490 | 2530 | –
CCc1cccc2cccc(N3CCc4c(nc(OCC5(CN(C)C)CC5)nc4N4CCn5nnc(CO)c5C4)C3)c12 [Example 517, (5-(2-((1-((dimethylamino)methyl)cyclopropyl)methoxy)-7-(8-ethylnaphthalen-1-yl)-5,6,7,8-tetrahydropyrido[3,4-d]pyrimidin-4-yl)-4,5,6,7-tetrahydro-[1,2,3]triazolo[1,5-a]pyrazin-3-yl)methanol] | 3100 | 6620 | 4470 | 1260 | 9330 | 15300 | 7190 | 11500 | –
CCc1cccc2cccc(N3CCc4c(nc(OCC5(CN(C)C)CC5)nc4NCc4c(C)nnn4CC)C3)c12 [Example 518, 2-((1-((dimethylamino)methyl)cyclopropyl)methoxy)-N-((1-ethyl-4-methyl-1H-1,2,3-triazol-5-yl)methyl)-7-(8-ethylnaphthalen-1-yl)-5,6,7,8-tetrahydropyrido[3,4-d]pyrimidin-4-amine] | 1790 | 161 | 139 | 1930 | 221 | 249 | 175 | 190 | –
CCc1cccc2cccc(N3CCc4c(nc(OCC5(CN(C)C)CC5)nc4N4Cc5nncn5C(C)C4)C3)c12 (stereo not shown) [Example 519, 1-(1-(((7-(8-ethylnaphthalen-1-yl)-4-(5-methyl-5,6-dihydro-[1,2,4]triazolo[4,3-a]pyrazin-7(8H)-yl)-5,6,7,8-tetrahydropyrido[3,4-d]pyrimidin-2-yl)oxy)methyl)cyclopropyl)-N,N-dimethylmethanamine] | 1560 | 5480 | 2850 | 2000 | 5230 | 8140 | 5580 | 5920 | –
CCc1c(F)ccc2cc(O)cc(N3CCc4c(nc(OCC5(CN(C)C)CC5)nc4N4CCOC(c5n[nH]c(CO)n5)C4)C3)c12 (stereo not shown) [Example 602, 4-(2-((1-((dimethylamino)methyl)cyclopropyl)methoxy)-4-(2-(5-(hydroxymethyl)-1H-1,2,4-triazol-3-yl)morpholino)-5,8-dihydropyrido[3,4-d]pyrimidin-7(6H)-yl)-5-ethyl-6-fluoronaphthalen-2-ol] | 6 | – | – | 44 | – | – | – | – | IC50 ([4]; Cisbio pERK HTRF): > 10000 nM; IC50 ([6]; Cisbio pERK HTRF): > 10000 nM; IC50 ([7]; Cisbio pERK HTRF): > 10000 nM; IC50 ([8]; Cisbio pERK HTRF): > 10000 nM; IC50 ([9]; Cisbio pERK HTRF): 7580 nM; IC50 ([10]; Cisbio pERK HTRF): 907 nM; IC50 [12]: 3 nM
CCc1c(F)ccc2cc(O)cc(N3CCc4c(nc(OC[C@@]56CCCN5C[C@H](F)C6)nc4N4CCCN(CC(F)(F)F)CC4)C3)c12 [Example 649, 5-ethyl-6-fluoro-4-(2-(((2R,7aS)-2-fluorotetrahydro-1H-pyrrolizin-7a(5H)-yl)methoxy)-4-(4-(2,2,2-trifluoroethyl)-1,4-diazepan-1-yl)-5,8-dihydropyrido[3,4-d]pyrimidin-7(6H)-yl)naphthalen-2-ol] | 29 | – | – | 124 | – | – | – | – | IC50 [4]: 3100 nM; IC50 [6]: > 10000 nM; IC50 [7]: 6520 nM; IC50 [8]: 3710 nM; IC50 [9]: 2440 nM; IC50 [10]: 1100 nM; IC50 [12]: 34 nM
CN(C)C(=O)c1cc2n(n1)CCCN(c1nc(OC[C@@]34CCCN3C[C@H](F)C4)nc3c1CCN(c1ccc(F)c4sc(N)c(C#N)c14)C3)C2 [Example 709, 5-(7-(2-amino-3-cyano-7-fluorobenzo[b]thiophen-4-yl)-2-(((2R,7aS)-2-fluorotetrahydro-1H-pyrrolizin-7a(5H)-yl)methoxy)-5,6,7,8-tetrahydropyrido[3,4-d]pyrimidin-4-yl)-N,N-dimethyl-5,6,7,8-tetrahydro-4H-pyrazolo[1,5-a][1,4]diazepine-2-carboxamide] | 31 | 83 | 72 | 17 | 95 | – | – | – | IC50 [4]: 8710 nM; IC50 [7]: 4290 nM; IC50 [8]: 4720 nM; IC50 [10]: 1250 nM
